Laboratory results published in patent publication US9078907B2, “Immunoregulator compounds” (Universita Degli Studi Di Roma “Tor Vergata”, priority 2001, dated 2015).

How the values were obtained:
[1] = test system: Mycobacterium smegmatis; assay: Colony forming units of M. smegmatis in differentiated THP-1 cells; format: cell-based; settings: THP-1, M. smegmatis, S1P 5 μM; ethanol 0.3%, 0.03%, 0.003% (dose dependent) or calphostin C 10 nM
Protocol: Human monocytic THP-1 leukemia line cells were used in this example as a model for macrophage response. In order to obtain macrophage phenotype, 5×10^5/ml THP-1 cells were induced to differentiate by 48 hours incubation in the presence of 20 ng/ml Phorbol Myristate Acetate (PMA). Differentiated THP-1 cells (dTHP-1) were then centrifuged three times and suspended in complete medium [RPMI 1640 (Gibco BRL) supplemented with 10% fetal bovine serum (Gibco BRL), 5 mM L-glutamine (Invitrogen), 1 mM sodium pyruvate (Gibco BRL) and non-essential amino acids (Euroclone)]. dTHP-1 were then infected for 3 hours with M. smegmatis at the multiplicity of infection of bacterium/cell 50:1. Following infection cells were washed three times with RPMI 1640 and incubated in complete medium at 37° C. for further 1, 12 and 24 hours in the presence or absence of sphingosine-1 phosphate used at the concentration of 5 μM.
In order to assess the role of macrophage PLD activity in sphingosine 1-phosphate induced mycobacterial growth control, following the infection the cells were cultured in the presence of various concentrations of ethanol (0.3%, 0.03%, 0.003%) or 10 nM calphostin C. […] Inhibiting activity of calphostin C is exploited by targeting PLD catalytic domain (Sciorra V. A., Hammond S. M., Morris A. J. Potent direct inhibition of mammalian phospholipase D isoenzymes by calphostin c. Biochemistry 2001; 40: 2640-46). Just after the infection and at the indicated time points, cells were 1) lysed using cold PBS containing 0.1% saponin (Sigma, MA, USA), ii) serially diluted in PBS containing 0.01% Tween-80 (Merck, Darmstadt, Germany) and iii) plated in triplicate in Middlebrook 7H10 medium (Becton Dickinson, MD, USA) supplemented with 10% OADC formulation (0.5 mg/ml oleic acid, 50 mg/ml albumin, 20 mg/ml dextrose, 0.04 mg/ml catalase and 8.5 mg/ml sodium chloride). M. smegmatis colonies were enumerated after incubation for 3 days at 37° C.

[2] = test system: macrophages; assay: ROI generation by dichlorofluorescein (DCF) flow cytometry; format: cell-based, human; settings: lipopolysaccharide stimulated cells, positive control
Protocol: Because dichloro fluorescein (DCF) is a fluorochrome obtained from reaction of non fluorescent 2, 7-dichloro fluorescein diacetate (DCFH) with various oxidants, analysis thereof is used to detect cellular oxidative stress and amount of oxygen reactive intermediates (ROI) produced by phagocytic cells. In the used model, this analysis is employed in order to monitor the D-erythro-sphingosine 1-phosphate (S1P) modulated ROI production from macrophages. Macrophages were incubated for 90 minutes with sphingosine 1-phosphate at 0.5 μM, 5 μM, 10 μM and 50 μM concentrations. After the incubation 100 μl of 0.4 μM DCFH (Calbiochem) were added and incubated for at least 30 minutes. Finally, cells were washed with PBS and analysed using FACScan flow cytometer from Becton Dickinson.

[3] = test system: macrophage PLD; format: cell-based, human

Compound: CCO [ethanol]
- mycobacterial replication after PLD inhibitor treatment of S1P treated cells [1]: increase

Compound: lipopolysaccharides [reference compound]
- DCF positive cells after stimulation [2]: increase

Compound: calphostin C
- mycobacterial replication after PLD inhibitor treatment of S1P treated cells [1]: increase

Compound: IFN-γ
- effect of IFN-γ pre-treatment on PLD activity of infected macrophages [3]: does not modify
- effect of IFN-γ treatment before and/or after infection on levels of macrophage PLD activity [3]: does not appear to modify
